Results on 1 compound are retold here after ChEMBL document CHEMBL6177998, “Rational Design of Dual Degraders by Incorporating Molecular Glue Structural Features into PROTAC Degraders” (J Med Chem, 2025).

A word on the Emax: it is the maximal effect, on the per cent scale that the assay sets. In general, AUC refers to concentration integrated over time. Lower therefore signals less exposure. As usually defined, the IC50 is the concentration needed to halve the response being measured. A word on the DC50: it is the midpoint of the concentration-degradation curve.

Active and inactive are the calls of the source. The calls are words filed in the database; no cut-off is given here.

The test system of data set [1] is Protein cereblon/Androgen receptor (Homo sapiens), P10275+Q96SW2 [UNDEFINED MUTATION]. The data set can be described thus: Binding affinity to CRBN/AR-V7 in human 22Rv1 cells assessed as ternary complex formation incubated for 6 hrs by co-immunoprecipitation based Western blot analysis. The format is cell-based. On the technique in general: A western blot detects proteins with antibodies after separation by electrophoresis.
Sequence of Protein cereblon/Androgen receptor (Homo sapiens), P10275+Q96SW2 [UNDEFINED MUTATION] (Q96SW2 whole entry, looked up, stated change not applied, one chain of several, canonical isoform): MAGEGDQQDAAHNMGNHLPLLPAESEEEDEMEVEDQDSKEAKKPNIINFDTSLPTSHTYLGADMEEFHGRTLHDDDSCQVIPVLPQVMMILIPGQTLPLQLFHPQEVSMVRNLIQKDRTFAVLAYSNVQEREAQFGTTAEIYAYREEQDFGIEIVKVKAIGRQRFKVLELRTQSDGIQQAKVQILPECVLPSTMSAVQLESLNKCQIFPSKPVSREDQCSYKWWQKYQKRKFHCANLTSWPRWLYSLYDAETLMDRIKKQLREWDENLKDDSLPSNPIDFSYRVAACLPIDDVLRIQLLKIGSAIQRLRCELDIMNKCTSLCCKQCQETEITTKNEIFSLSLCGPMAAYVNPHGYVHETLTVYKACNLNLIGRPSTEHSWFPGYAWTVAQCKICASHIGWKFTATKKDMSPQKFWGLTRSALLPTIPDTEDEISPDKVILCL

Data set [2] concerns the target T1, Protein cereblon/Androgen receptor (Homo sapiens, UniProt P10275+Q96SW2). The data set can be described thus: PROTAC activity at CRBN/AR in human 22Rv1 cells assessed as decrease in FKBP51 protein level incubated for 24 hrs by Western blot analysis. Format: cell-based. The note with it: dose 1-10 nM.
Target sequence in this assay (Q96SW2 whole entry, looked up, one chain of several): as the sequence (Q96SW2 whole entry, looked up, stated change not applied, one chain of several, canonical isoform) above
The target of data set [3] is T2, Protein cereblon/Eukaryotic peptide chain release factor GTP-binding subunit ERF3A (Homo sapiens, UniProt Q96SW2+P15170). Put plainly: Molecular glue activity at CRBN/GSPT1 in human VCaP cells assessed as induction of GSPT1 degradation by measuring maximal efficacy incubated for 24 hrs by Western blot analysis relative to control. Format: cell-based.
T2 sequence (P15170 whole entry, looked up): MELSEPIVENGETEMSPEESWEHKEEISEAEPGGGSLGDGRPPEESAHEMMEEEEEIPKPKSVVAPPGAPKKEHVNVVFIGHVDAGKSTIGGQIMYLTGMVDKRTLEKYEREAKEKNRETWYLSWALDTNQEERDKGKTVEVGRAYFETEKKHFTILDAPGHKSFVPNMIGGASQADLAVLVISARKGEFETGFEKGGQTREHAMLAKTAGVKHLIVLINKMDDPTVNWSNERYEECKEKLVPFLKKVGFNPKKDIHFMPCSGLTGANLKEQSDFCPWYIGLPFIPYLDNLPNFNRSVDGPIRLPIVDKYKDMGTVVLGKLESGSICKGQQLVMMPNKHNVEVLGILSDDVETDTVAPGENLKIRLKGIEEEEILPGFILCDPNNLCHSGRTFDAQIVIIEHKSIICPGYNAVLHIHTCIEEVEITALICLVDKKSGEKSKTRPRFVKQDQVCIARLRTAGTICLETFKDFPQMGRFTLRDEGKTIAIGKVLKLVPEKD
T2 sequence (Q96SW2 whole entry, looked up): as the sequence (Q96SW2 whole entry, looked up, stated change not applied, one chain of several, canonical isoform) above
Data set [4] addresses T2, Protein cereblon/Eukaryotic peptide chain release factor GTP-binding subunit ERF3A. The data set can be described thus: In vivo molecular glue activity at CRBN/GSPT1 in male NOD SCID mouse model xenografted with human LNCaP cells assessed as reduction in GSPT1 level in tumor at 20 mg/kg, po administered daily for 26 days by Western blot analysis. The format is functional, organism-based. Conditions: time 26.0 day. (In general: Xenograft models place foreign cells or tissue in a host animal.)

Data set [5] concerns Protein cereblon/Androgen receptor (Homo sapiens), P10275+Q96SW2 [UNDEFINED MUTATION]. Put plainly: PROTAC activity at CRBN/Androgen receptor splice variant 7 in human VCaP cells assessed as induction of AR-V7 degradation at 50 nM preincubated with MLN4924 followed by compound addition and measured after 12 hrs by Western blot analysis. The format is cell-based.
Data set [6] addresses T1, Protein cereblon/Androgen receptor. Put plainly: PROTAC activity at CRBN/AR in human 22Rv1 cells assessed as decrease in TMPRSS2 mRNA level at 1 to 3 nM incubated for 24 hrs by qRT-PCR analysis. The format is cell-based. The note with it: dose 1-3 nM.
Target sequence in this assay (Q96SW2 whole entry, looked up, one chain of several): as the sequence (Q96SW2 whole entry, looked up, stated change not applied, one chain of several, canonical isoform) above
The target is the same in data set [7]. Put plainly: PROTAC activity at CRBN/AR in human Enzalutamide-resistant VCaP cells assessed as induction of androgen receptor degradation at 1 to 300 nM by Western blot analysis. The format is cell-based. Conditions: dose 1-300 nM.
Target sequence in this assay (Q96SW2 whole entry, looked up, one chain of several): as the sequence (Q96SW2 whole entry, looked up, stated change not applied, one chain of several, canonical isoform) above
Data set [8] can be described thus: AUC in male ICR mouse at 10 mg/kg, po by LC-MS/MS analysis. Conditions: in vivo. Format: ADME, organism-based.
A further data set addresses T3, Androgen receptor (Homo sapiens, UniProt P10275).
T3 sequence (P10275 whole entry): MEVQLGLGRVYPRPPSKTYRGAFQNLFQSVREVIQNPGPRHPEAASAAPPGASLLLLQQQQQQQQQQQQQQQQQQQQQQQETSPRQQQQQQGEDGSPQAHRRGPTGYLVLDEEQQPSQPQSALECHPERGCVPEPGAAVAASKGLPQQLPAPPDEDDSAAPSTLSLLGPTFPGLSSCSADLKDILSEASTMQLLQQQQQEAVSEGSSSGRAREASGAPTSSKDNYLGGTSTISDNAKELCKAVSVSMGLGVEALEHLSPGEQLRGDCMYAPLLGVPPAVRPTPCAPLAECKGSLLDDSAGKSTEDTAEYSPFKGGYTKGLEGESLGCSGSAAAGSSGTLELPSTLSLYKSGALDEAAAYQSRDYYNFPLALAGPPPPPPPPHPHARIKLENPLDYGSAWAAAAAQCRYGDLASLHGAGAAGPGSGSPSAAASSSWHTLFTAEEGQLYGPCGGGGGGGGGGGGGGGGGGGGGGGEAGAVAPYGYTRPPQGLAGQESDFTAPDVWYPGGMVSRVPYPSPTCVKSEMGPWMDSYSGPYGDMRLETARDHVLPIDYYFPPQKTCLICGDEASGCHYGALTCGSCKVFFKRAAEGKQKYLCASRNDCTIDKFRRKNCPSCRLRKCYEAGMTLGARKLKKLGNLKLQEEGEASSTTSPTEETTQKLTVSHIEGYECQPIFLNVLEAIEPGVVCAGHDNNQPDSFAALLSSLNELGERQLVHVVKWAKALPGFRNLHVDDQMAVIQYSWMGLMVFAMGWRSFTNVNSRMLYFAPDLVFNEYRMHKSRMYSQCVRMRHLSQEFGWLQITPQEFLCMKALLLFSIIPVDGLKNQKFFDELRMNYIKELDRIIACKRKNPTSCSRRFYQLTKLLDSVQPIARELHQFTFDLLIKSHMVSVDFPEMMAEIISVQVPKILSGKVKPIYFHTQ
The data set can be described thus: Inhibition of wildtype AR (unknown origin) transcriptional activity transfected in HEK293T cells co-transfected with PSA-luciferase reporter and pRL-TK assessed as reduction in PSA-luciferase activity incubated for 24 hrs by luminescence based microplate reader analysis. Format: cell-based. (In general: Reporter assays use an easily measured gene product as a stand-in for the process of interest.)

For data set [9], the target named is T1, Protein cereblon/Androgen receptor. The data set can be described thus: (§1) PROTAC activity at CRBN/Androgen receptor splice variant 7 in human VCaP cells assessed as induction of AR-V7 degradation incubated for 24 hrs by Western blot analysis. Format: cell-based.
Target sequence in this assay (Q96SW2 whole entry, looked up, change not shown, one chain of several): as the sequence (Q96SW2 whole entry, looked up, stated change not applied, one chain of several, canonical isoform) above
The test system of data set [10] is Protein cereblon/Androgen receptor (Homo sapiens), P10275+Q96SW2 [UNDEFINED MUTATION]. The data set is described as §1. The format is cell-based.
Data set [11] has as its target T2, Protein cereblon/Eukaryotic peptide chain release factor GTP-binding subunit ERF3A. The data set can be described thus: Molecular glue activity at CRBN/GSPT1 in human 22Rv1 cells assessed as induction of GSPT1 degradation at 20 nM incubated for 36 hrs by Western blot analysis (reference value: 0 %). Format: cell-based.
In data set [12] the target is T1, Protein cereblon/Androgen receptor. Put plainly: PROTAC activity at CRBN/AR in human 22Rv1 cells assessed as induction of AR degradation at 20 nM incubated for 1 hrs by Western blot analysis (reference value: 0 %). The format is cell-based.
Target sequence in this assay (Q96SW2 whole entry, looked up, one chain of several): as the sequence (Q96SW2 whole entry, looked up, stated change not applied, one chain of several, canonical isoform) above
Data set [13] concerns Protein cereblon/Androgen receptor (Homo sapiens), P10275+Q96SW2 [UNDEFINED MUTATION]. Put plainly: PROTAC activity at CRBN/Androgen receptor splice variant 7 in human 22Rv1 cells assessed as induction of AR-V7 degradation at 0.1 uM incubated for 24 hrs by Western blot analysis relative to control. The format is cell-based.
The subject of a further data set is LNCaP. Put plainly: Antiproliferative activity against AR-dependent human LNCaP cells assessed as cell growth inhibition incubated for 72 hrs by Celltiter-lumi luminescent cell viability assay. The format is functional, cell-based.
The target of data set [14] is T1, Protein cereblon/Androgen receptor. Put plainly: PROTAC activity at CRBN/AR in human 22Rv1 cells assessed as induction of AR degradation at 50 uM preincubated with thalidomide followed by compound addition and measured after 12 hrs by Western blot analysis. Format: cell-based.
Target sequence in this assay (Q96SW2 whole entry, looked up, one chain of several): as the sequence (Q96SW2 whole entry, looked up, stated change not applied, one chain of several, canonical isoform) above
The subject of the next data set is DU-145. The data set can be described thus: Antiproliferative activity against AR-independent human DU-145 cells assessed as cell growth inhibition incubated for 72 hrs by Celltiter-lumi luminescent cell viability assay. The format is functional, cell-based. The note with it: DU-145, 72 h.
Data set [15] has as its system Protein cereblon/Androgen receptor (Homo sapiens), P10275+Q96SW2 [UNDEFINED MUTATION]. The data set can be described thus: PROTAC activity at CRBN/Androgen receptor splice variant 7 in human VCaP cells assessed as induction of AR-V7 degradation at 50 nM preincubated with MG132 followed by compound addition and measured after 12 hrs by Western blot analysis. Format: cell-based.

The target of data set [16] is T2, Protein cereblon/Eukaryotic peptide chain release factor GTP-binding subunit ERF3A. Put plainly: Molecular glue activity at CRBN/GSPT1 in human Enzalutamide-resistant VCaP cells assessed as induction of GSPT1 degradation at 1 to 300 nM by Western blot analysis. Format: cell-based. Conditions: dose 1-300 nM.
Data set [17] addresses T1, Protein cereblon/Androgen receptor. Put plainly: PROTAC activity at CRBN/AR in human 22Rv1 cells assessed as decrease in PSA protein level incubated for 24 hrs by Western blot analysis. The format is cell-based. Conditions: dose 1-10 nM.
Target sequence in this assay (Q96SW2 whole entry, looked up, one chain of several): as the sequence (Q96SW2 whole entry, looked up, stated change not applied, one chain of several, canonical isoform) above

Regarding `COc1ccc(C(C)(C)c2cc(Cl)c(OCC3CCN(C(=O)CCCCCNc4ccc5c(c4)C(=O)N(C4CCC(=O)NC4=O)C5=O)CC3)c(C#N)c2)cc1` (stereo not given), the result in data set [1], in [4], in data set [6], in [7] and in data set [16] was Active. The Activity entry is “Dose-dependent-effect” in data set [2]; “Dose-dependent-effect” in [10]; 98.5% in [11]; 49% in data set [12]; 76.7% in [13]; “Dose-dependent-effect” in data set [17]. Also, the Emax in data set [3] turned out to be 96%. Further, the outcome in data set [5], in [14] and in data set [15] was inactive. Further, the area under the curve (AUC) in data set [8] is 1.03 µg·h/mL. Moreover, the figures for the IC50 on Androgen receptor, in the data set with LNCaP and in the data set on DU-145 were 3.2 nM, 2.8 nM and 882 nM, respectively. In [9], the DC50 is 2.5 nM.
